Measurements: patent publication US20250170090A1, “METHOD FOR PREVENTING OR TREATING DISEASE OR DISORDER ASSOCIATED WITH ANTINEOPLASTIC AGENT” (ONQUALITY PHARMACEUTICALS CHINA LTD., priority 2022, published 2025)
Like-named read-outs stand apart in the source and are kept apart here.

How the values were obtained:
[1] = test system: hand-foot syndrome induced by anti-tumor agents; experiment: Prevention of hand-foot syndrome induced by anti-tumor agents in rats, NO-NSAID ointment on hind paws (Table 2-2); format: in vivo, SD rats; details: Rattus norvegicus, topical, 120 h, Sorafenib 80 mg/kg once a day, Days 5, read-out: Control rate
Outline: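 Female SD rats (8 weeks, ~200 g; 10/group) received anti-tumour agents by daily oral gavage in Cremophor EL:ethanol 1:1 diluted ~3× with PBS. NO-NSAID or blank ointment was applied to hind paws once daily, 4 h restrained, then wiped off. Control rate = blank-group minus treated-group hand-foot syndrome incidence.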

[2] = test system: HUVEC cells; experiment: CCK-8 cell viability: alleviation of proliferative toxicity of anti-tumor agents on HUVEC cells (Tables 7-1, 7-2); format: cell-based; details: for activation at 100 µM: Homo sapiens, 24 h, percentage increase in viable cells vs anti-tumor agent alone, read-out: Response rate % (average)
Outline: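 HUVEC cells were treated with anti-tumor agent (DMSO solvent) alone or combined with NO-NSAID (ethanol or water solvent), and NO-NSAID solvent controls were used for correction. After 24-48 h of culture, viability was read by CCK-8 to derive proliferative toxicity and how much NO-NSAID mitigated it.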

[3] = Afatinib (10 μM), NO-NSAID 100 μM
[4] = Cabozantinib (5 μM), NO-NSAID 100 μM
[5] = Dabrafenib (10 μM), NO-NSAID 100 μM
[6] = Everolimus (5 μM), NO-NSAID 100 μM
[7] = Infigratinib (15 μM), NO-NSAID 100 μM
[8] = Lapatinib (5 μM), NO-NSAID 100 μM
[9] = Lenvatinib (10 μM), NO-NSAID 100 μM
[10] = Olmutinib (10 μM), NO-NSAID 100 μM
[11] = Regorafenib (5 μM), NO-NSAID 100 μM
[12] = Selumetinib (5 μM), NO-NSAID 100 μM
[13] = Sorafenib (5 μM), NO-NSAID 100 μM
[14] = Sunitinib (5 μM), NO-NSAID 100 μM

SMILES: CC(C)Cc1ccc(C(C)C(=O)OCO/N=[N+](\[O-])N(C)C)cc1 (stereo not drawn) [Compound A4]
- responders at 0.5 % ([1]; ointment 0.50% wt): 42.9%
- responders at 2 % ([1]; ointment 2% wt): 71.4%
- NO-NSAID response rate % (average) ([2]; Afatinib (10 μM), NO-NSAID 0.1 μM): 18%
- NO-NSAID response rate % (average) ([2]; Afatinib (10 μM), NO-NSAID 1 μM): 35%
- NO-NSAID response rate % (average) [2, 3]: 70%
- NO-NSAID response rate % (average) ([2]; Afatinib (10 μM), NO-NSAID 500 μM): 14%
- NO-NSAID response rate % (average) ([2]; Cabozantinib (5 μM), NO-NSAID 0.1 μM): 3%
- NO-NSAID response rate % (average) ([2]; Cabozantinib (5 μM), NO-NSAID 1 μM): 9%
- NO-NSAID response rate % (average) [2, 4]: 13%
- NO-NSAID response rate % (average) ([2]; Cabozantinib (5 μM), NO-NSAID 500 μM): 11%
- NO-NSAID response rate % (average) ([2]; Dabrafenib (10 μM), NO-NSAID 0.1 μM): 20%
- NO-NSAID response rate % (average) ([2]; Dabrafenib (10 μM), NO-NSAID 1 μM): 34%
- NO-NSAID response rate % (average) [2, 5]: 33%
- NO-NSAID response rate % (average) ([2]; Dabrafenib (10 μM), NO-NSAID 500 μM): 41%
- NO-NSAID response rate % (average) ([2]; Everolimus (5 μM), NO-NSAID 0.1 μM): 10%
- NO-NSAID response rate % (average) ([2]; Everolimus (5 μM), NO-NSAID 1 μM): −2%
- NO-NSAID response rate % (average) [2, 6]: 1%
- NO-NSAID response rate % (average) ([2]; Everolimus (5 μM), NO-NSAID 500 μM): 4%
- activation at 100 µM [2, 3]: 70%
- activation at 100 µM ([2]; Anlotinib (5 μM), NO-NSAID 100 μM): 67%
- activation at 100 µM ([2]; Apatinib (10 μM), NO-NSAID 100 μM): 52%
- activation at 100 µM ([2]; Axitinib (10 μM), NO-NSAID 100 μM): 39%
- activation at 100 µM [2, 4]: 13%
- activation at 100 µM [2, 5]: 33%
- activation at 100 µM ([2]; Dacomitinib (5 μM), NO-NSAID 100 μM): 71%
- activation at 100 µM ([2]; Encorafenib (5 μM), NO-NSAID 100 μM): 59%
- activation at 100 µM ([2]; Erdafitinib (10 μM), NO-NSAID 100 μM): 45%
- activation at 100 µM [2, 6]: 1%
- activation at 100 µM ([2]; Famitinib (5 μM), NO-NSAID 100 μM): 69%
- activation at 100 µM ([2]; Fruquintinib (10 μM), NO-NSAID 100 μM): 62%
- activation at 100 µM ([2]; Gefitinib (10 μM), NO-NSAID 100 μM): 42%
- activation at 100 µM [2, 7]: 30%
- activation at 100 µM [2, 8]: 30%
- activation at 100 µM [2, 9]: 74%
- activation at 100 µM [2, 10]: 28%
- activation at 100 µM [2, 11]: 74%
- activation at 100 µM [2, 12]: 34%
- activation at 100 µM [2, 13]: 76%
- activation at 100 µM [2, 14]: 34%
- activation at 100 µM ([2]; Vemurafenib (5 μM), NO-NSAID 100 μM): 58%
- NO-NSAID response rate % (average) ([2]; Infigratinib (15 μM), NO-NSAID 0.1 μM): 23%
- NO-NSAID response rate % (average) ([2]; Infigratinib (15 μM), NO-NSAID 1 μM): 39%
- NO-NSAID response rate % (average) [2, 7]: 30%
- NO-NSAID response rate % (average) ([2]; Infigratinib (15 μM), NO-NSAID 500 μM): 18%
- NO-NSAID response rate % (average) ([2]; Lapatinib (5 μM), NO-NSAID 0.1 μM): 20%
- NO-NSAID response rate % (average) ([2]; Lapatinib (5 μM), NO-NSAID 1 μM): 17%
- NO-NSAID response rate % (average) [2, 8]: 30%
- NO-NSAID response rate % (average) ([2]; Lapatinib (5 μM), NO-NSAID 500 μM): 28%
- NO-NSAID response rate % (average) ([2]; Lenvatinib (10 μM), NO-NSAID 0.1 μM): 24%
- NO-NSAID response rate % (average) ([2]; Lenvatinib (10 μM), NO-NSAID 1 μM): 15%
- NO-NSAID response rate % (average) [2, 9]: 74%
- NO-NSAID response rate % (average) ([2]; Lenvatinib (10 μM), NO-NSAID 500 μM): 14%
- NO-NSAID response rate % (average) ([2]; Olmutinib (10 μM), NO-NSAID 0.1 μM): 25%
- NO-NSAID response rate % (average) ([2]; Olmutinib (10 μM), NO-NSAID 1 μM): 38%
- NO-NSAID response rate % (average) [2, 10]: 28%
- NO-NSAID response rate % (average) ([2]; Olmutinib (10 μM), NO-NSAID 500 μM): 30%
- NO-NSAID response rate % (average) ([2]; Regorafenib (5 μM), NO-NSAID 0.1 μM): 29%
- NO-NSAID response rate % (average) ([2]; Regorafenib (5 μM), NO-NSAID 1 μM): 26%
- NO-NSAID response rate % (average) [2, 11]: 74%
- NO-NSAID response rate % (average) ([2]; Regorafenib (5 μM), NO-NSAID 500 μM): 26%
- NO-NSAID response rate % (average) ([2]; Selumetinib (5 μM), NO-NSAID 0.1 μM): 35%
- NO-NSAID response rate % (average) ([2]; Selumetinib (5 μM), NO-NSAID 1 μM): 33%
- NO-NSAID response rate % (average) [2, 12]: 34%
- NO-NSAID response rate % (average) ([2]; Selumetinib (5 μM), NO-NSAID 500 μM): 41%
- NO-NSAID response rate % (average) ([2]; Sorafenib (5 μM), NO-NSAID 0.1 μM): 4%
- NO-NSAID response rate % (average) ([2]; Sorafenib (5 μM), NO-NSAID 1 μM): 17%
- NO-NSAID response rate % (average) [2, 13]: 76%
- NO-NSAID response rate % (average) ([2]; Sorafenib (5 μM), NO-NSAID 500 μM): 16%
- NO-NSAID response rate % (average) ([2]; Sunitinib (5 μM), NO-NSAID 0.1 μM): 19%
- NO-NSAID response rate % (average) ([2]; Sunitinib (5 μM), NO-NSAID 1 μM): 20%
- NO-NSAID response rate % (average) [2, 14]: 34%
- NO-NSAID response rate % (average) ([2]; Sunitinib (5 μM), NO-NSAID 500 μM): 20%
